{"source": "patent US12644133B2", "about": "“Methods and compositions to increase somatic cell nuclear transfer (SCNT) efficiency by removing histone H3-lysine trimethylation” (The Children's Medical Center Corporation, priority 2014, dated 2026)", "tested_on": "SCNT embryos transferred to pseudopregnant ICR females", "assay": "In vivo development of 2-cell SCNT embryos after embryo transfer (caesarian section at E19.5)", "design": "species or system mouse", "conditions": "for Body weight at birth (g ± SD) / Placenta weight at birth (g ± SD) / No. of implanted / No. of pups / implanted (% per ET) / pups (% per ET): Kdm4d mRNA 1800 ng/μl", "source_text": "Two-cell stage embryos generated by SCNT or in vitro fertilization were transferred to the oviducts of pseudopregnant (E0.5) ICR females. The pups were recovered by caesarian section on the day of delivery (E19.5) and nursed by lactating ICR females.", "key": {"[1]": {"conditions": "Sertoli donor cells (BDF1, male)"}, "[2]": {"conditions": "Sertoli donor cells (BDF1, male), E19.5"}, "[3]": {"conditions": "Sertoli donor cells (BDF1, male), E19.5, listed as Kdm4d"}, "[4]": {"conditions": "Sertoli donor cells (BDF1, male), E19.5, listed as Kdm4d WT"}, "[5]": {"conditions": "cumulus donor cells (BDF1, female)"}, "[6]": {"conditions": "cumulus donor cells (BDF1, female), E19.5"}}, "data": [{"substance": "Kdm4d WT mRNA: in vitro transcribed full length mouse Kdm4d mRNA, encoding an H3K9me3-specific histone demethylase", "values": [{"measurement": "Body weight at birth (g ± SD)", "setting": "[1]", "value": "1.48 ± 0.11", "unit": "g"}, {"measurement": "Placenta weight at birth (g ± SD)", "setting": "[1]", "value": "0.26 ± 0.10", "unit": "g"}, {"measurement": "No. of implanted", "setting": "[2]", "value": 59}, {"measurement": "No. of pups", "setting": "[2]", "value": 8}, {"measurement": "implanted (% per ET)", "setting": "[3]", "value": 64, "unit": "%"}, {"measurement": "pups (% per ET)", "setting": "[3]", "value": 8.7, "unit": "%"}, {"measurement": "implanted (% per ET)", "setting": "[4]", "value": 64.1, "unit": "%"}, {"measurement": "pups (% per ET)", "setting": "[4]", "value": "(8.7) %"}, {"measurement": "Body weight at birth (g ± SD)", "setting": "[5]", "value": "1.60 ± 0.15", "unit": "g"}, {"measurement": "Placenta weight at birth (g ± SD)", "setting": "[5]", "value": "0.32 ± 0.03", "unit": "g"}, {"measurement": "No. of implanted", "setting": "[6]", "value": 75}, {"measurement": "No. of pups", "setting": "[6]", "value": 9}, {"measurement": "implanted (% per ET)", "setting": "[6]", "value": 63.0, "unit": "%"}, {"measurement": "pups (% per ET)", "setting": "cumulus donor cells (BDF1, female), E19.5, listed as Kdm4d", "value": 7.6, "unit": "%"}, {"measurement": "pups (% per ET)", "setting": "cumulus donor cells (BDF1, female), E19.5, listed as Kdm4d WT", "value": "(7.6) %"}, {"measurement": "rate of implantation relative to control SCNT embryos", "setting": "cumulus donor cells, E19.5", "value": 3, "unit": "fold"}, {"measurement": "growth and fertility of SCNT pups (in words)", "setting": "mouse, in vivo", "value": "grew normally to adulthood and generated offspring by natural mating"}]}]}
